Where no end group is shown, it is not given here.
Columns and labels:
IQN17 = test: Binding of Alexa-C28 to IQN17, titration measured by capillary zone electrophoresis; parameters: species or system HIV-1; conditions: 5 μM Alexa-C28, increasing concentration of IQN17, FIG. 3
Protocol: Eckert et al., Cell 99, 103-115 (1999). C28 was labeled with the fluorescent molecule, Alexa-430 (Molecular Probes) at its carboxyl terminal (Alexa-C28). The binding was measured by titration of labeled C28 with IQN17. The concentration of bound and unbound C28 was measured by capillary zone electrophoresis.
Capillary Electrophoresis Separations. Capillary electrophoresis experiments were conducted on a Beckman Coulter P/ACE System MDQ and a Spectrumedix 9610HTS. […] Separations were conducted with an applied voltage of 30 kV. The capillaries used in the Spectrumedix 9610HTS has an inner diameter of 50 μm, effective length of 50 cm, and an inner surface of fused silica. Separations were conducted with an applied voltage of 13 kV. Separation buffer was 20 mM Sodium Borate, pH=8.5. Peptides traveling passed a fluorescence detector were excited by a laser emitting at 488 nm. The peaks were analyzed using software packages supplied by the instrument companies. In the figures, RFU refers to relative fluorescence units.
Binding of C28 to IQN17: Peptide concentrations were determined by weight. […] The binding affinity of C28 to IQN-17 was determined by a capillary electrophoresis (FIG. 3). […]
The area of the Alexa-C28 peaks in increasing concentrations of IQN-17 was analyzed in comparison to the area of Alexa-C28 in the absence of IQN-17 by capillary zone electrophoresis. […]

[1] = target: IQN17 (HIV-1 (gp41 segment); GCN4-pIQI segment designed)

Question: How did the “amount of unbound peptide (broader peak on the right) in titration” value (IQN17) turn out when “Alexa-C28: C28 labeled with the fluorescent molecule Alexa-430 at its carboxyl terminal (WMEWDREINNYTSLIHSLIEESQNQQEK-{Alexa‑430})” was run?
Answer: The value was “decreased from 100% to 0%”.

Question: For WMEWDREINNYTSLIHSLIEESQNQQEK (modifications not checked) [Alexa-C28], which percent of C28 bound [1] is on record?
Answer: Its percent of C28 bound is 80%.

From patent publication US20050208678A1, “Anti-fusion assay” (priority 2001, published 2005)
